Results: patent US5599793A, “Antithromobotic agents” (Eli Lilly and Company, priority 1995, dated 1997)

What was measured:
Human plasma [1] = assay: Human plasma anticoagulation, activated partial thromboplastin time (APTT); assay type: biochemical; settings: concentration required to double the APTT, linear extrapolation
Description: (§1) Dog plasma and rat plasma is obtained from conscious mixed-breed hounds (either sex, Hazelton-LRE, Kalamazoo, Mich., U.S.A.) or from anesthetized male Sprague-Dawley rats (Harlan Sprague-Dawley, Inc., Indianapolis, Ind., U.S.A.) by venipuncture into 3.8 percent citrate. Fibrinogen is prepared from in-date ACD human blood as the fraction I-2 according to previous procedures and specifications. Smith, Biochem. J., 185, 1-11 (1980); and Smith, et al., Biochemistry, 11, 2958-2967 (1972). Human fibrinogen is also purchased as 98 percent pure/plasmin free from American Diagnostica, Greenwich, Conn. Coagulation reagents ACTIN, Thromboplastin, and Human plasma are from Baxter Healthcare Corp., Dade Division, Miami, Fla. Bovine thrombin from Parke-Davis ([…], Mich.) is used for coagulation assays in plasma.
(§2) Coagulation assay procedures are as previously described. Smith, et al., Thrombosis Research, 50, 163-174 (1988). A CoAScreener coagulation instrument (American LABor, Inc.) is used for all coagulation assay measurements. The prothrombin time (PT) is measured by adding 0.05 mL saline and 0.05 mL Thromboplastin-C reagent to 0.05 mL test plasma. The activated partial thromboplastin time (APTT) is measured by incubation of 0.05 mL test plasma with 0.05 mL Actin reagent for 120 seconds followed by 0.05 mL CaCl2 (0.02M). The thrombin time (TT) is measured by adding 0.05 mL saline and 0.05 mL thrombin (10 NIH units/mL) to 0.05 mL test plasma. The compounds of formula I are added to human or animal plasma over a wide range of concentrations to determine prolongation effects on the APTT, PT, and TT assays. Linear extrapolations are performed to estimate the concentrations required to double the clotting time for each assay.

Human plasma [2] = assay: Human plasma anticoagulation, prothrombin time (PT); assay type: biochemical; settings: concentration required to double the PT, linear extrapolation
Description: as §1, §2

Structure (SMILES)	2x Clotting time, APTT (Human plasma [1])	2x Clotting time, PT (Human plasma [2])	2x Clotting time, APTT (Human plasma [1]; HCl)	2x Clotting time, PT (Human plasma [2]; HCl)
C[C@H]1C[C@@H](C(=O)N[C@H](C=O)CCCNC(=N)N)N(C(=O)[C@H]2CCCCN2)C1.Cl.Cl (relative stereo) [Example 1, D-homoprolyl-L-cis-4-methyl-prolyl-L-argininal dihydrochloride]	510 ng/mL	1,700 ng/mL		
CC[C@H]1C[C@@H](C(=O)N[C@H](C=O)CCCNC(=N)N)N(C(=O)[C@H]2CCCCN2)C1.Cl.Cl (relative stereo) [Example 2, D-homoprolyl-L-cis-4-ethyl-prolyl-L-argininal dihydrochloride]	460 ng/mL	1,500 ng/mL		
CCC[C@H]1C[C@@H](C(=O)N[C@H](C=O)CCCNC(=N)N)N(C(=O)[C@H]2CCCCN2)C1.Cl.Cl (relative stereo) [Example 3, D-hPro-Pro(4-cis-n-propyl)-ArgH.2 HCl]	610 ng/mL	2,900 ng/mL		
Cl.Cl.N=C(N)NCCC[C@@H](C=O)NC(=O)[C@@H]1C[C@H](Cc2ccccc2)CN1C(=O)[C@H]1CCCCN1 (relative stereo) [Example 5, D-hPro-Pro(4-cis-benzyl)-ArgH.2 HCl]	510 ng/mL	1,600 ng/mL		
Cl.Cl.N=C(N)NCCC[C@@H](C=O)NC(=O)[C@@H]1CC2CCCCC2N1C(=O)[C@H]1CCCCN1 (relative stereo) [Example 7, N-[(1-D-homoprolyl-cis-octahydro-1H-indol-2(S)-yl)carbonyl]-L-argininal dihydrochloride]	450 ng/mL	1,500 ng/mL		
Cl.Cl.N=C(N)NCCC[C@H](C=O)NC(=O)[C@@H]1C[C@H](Oc2ccccc2)CN1C(=O)[C@H]1CCCCN1 (relative stereo) [Example 8, D-homoprolyl-L-cis-4-phenoxy-L-prolyl-D-argininal dihydrochloride]	520 ng/mL	1,900 ng/mL		
Cl.Cl.Cl.N=C(N)NCCC[C@@H](C=O)NC(=O)[C@@H]1C[C@H](Oc2cccnc2)CN1C(=O)[C@H]1CCCCN1 (relative stereo) [Example 9, D-hPro-Pro(4-cis-(3-pyridyloxy))-ArgH.3 HCl]	880 ng/mL	3,100 ng/mL		
Cl.Cl.Cl.N=C(N)NCCC[C@@H](C=O)NC(=O)[C@@H]1C[C@H](Oc2ccc(N)cc2)CN1C(=O)[C@H]1CCCCN1 (relative stereo) [Example 11, D-hPro-Pro(4-cis-(4-NH2-phenoxy))-ArgH.3 HCl]	1,400 ng/mL	5,900 ng/mL		
Cl.Cl.N=C(N)NCCC[C@@H](C=O)NC(=O)[C@@H]1C[C@H](Oc2ccccc2)CN1C(=O)C1NCCC2CCCCC21 (relative stereo) [Example 15, D-1-Piq-Pro(4-cis-phenoxy)-ArgH.2 HCl]	940 ng/mL	1,600 ng/mL		
CCS(=O)(=O)N[C@@H](C(=O)N1[C@H](C(=O)N[C@H](C=O)CCCNC(=N)N)C[C@@H]2CCCC[C@@H]21)c1ccccc1.Cl (relative stereo) [Example 22, EtSO2 -D-Phg-cis-Ohi-ArgH.HCl]	332 ng/mL	1,208 ng/mL		
Cl.Cl.N=C(N)NCCCC(C=O)NC(=O)C1CC2CCCCC2N1C(=O)C1NCCC2CCCCC21 [Example 20, D-1-cis-Piq-cis-Ohi-ArgH.2 HCl]			627 ng/mL	1,452 ng/mL
